Data on seven molecules can be found in ChEMBL document CHEMBL3232998, “Spiromastixones A-O, antibacterial chlorodepsidones from a deep-sea-derived Spiromastix sp. fungus” (J Nat Prod, 2014).

The test system of experiment [1] is Staphylococcus aureus. Briefly: Antibacterial activity against Staphylococcus aureus ATCC 29213 after 18 hrs by broth microdilution method. Type of experiment: functional. The note with it: ATCC 29213, 18 h.
Another experiment deals with Bacillus thuringiensis. The experiment in a line: Antibacterial activity against Bacillus thuringiensis SCSIO BT01 after 18 hrs by broth microdilution method. Format: functional. The note with it: SCSIO BT01, 18 h. Background: In broth dilution the organism is exposed to a series of concentrations in liquid medium.
For a further experiment, the system named is Bacillus subtilis. Briefly: Antibacterial activity against Bacillus subtilis SCSIO BS01 after 18 hrs by broth microdilution method. Particulars: SCSIO BS01, 18 h. Type of experiment: functional.
Experiment [2] relates to Escherichia coli. Briefly: Antibacterial activity against Escherichia coli ATCC 25922 after 18 hrs by broth microdilution method. Type of experiment: functional. The note with it: ATCC 25922, 18 h.
For experiment [3], the system named is Staphylococcus aureus. Briefly: Antibacterial activity against methicillin-sensitive Staphylococcus aureus ATCC 29213 after 18 hrs by broth microdilution method. Format: functional, organism-based. Particulars: ATCC 29213, 18 h, read-out: IC50.
For experiment [4], the system named is Staphylococcus aureus. Briefly: Antibacterial activity against methicillin-resistant Staphylococcus aureus ATCC 33591 after 18 hrs by broth microdilution method. Format: functional, organism-based. The note with it: ATCC 33591, 18 h, read-out: IC50.
Experiment [5] relates to Staphylococcus aureus. Briefly: Antibacterial activity against methicillin-sensitive Staphylococcus aureus 15 after 18 hrs by broth microdilution method. Format: functional, organism-based. The note with it: Staphylococcus aureus, 15, 18 h; read-out: IC50.
The subject of experiment [6] is Staphylococcus aureus. The experiment in a line: Antibacterial activity against methicillin-sensitive Staphylococcus aureus 12-28 after 18 hrs by broth microdilution method. Type of experiment: functional, organism-based. Particulars: 12-28, 18 h.
Experiment [7] concerns Staphylococcus aureus. Briefly: Antibacterial activity against methicillin-resistant Staphylococcus aureus 12-33 after 18 hrs by broth microdilution method. Format: functional, organism-based. Particulars: 12-33, 18 h, read-out: IC50.
For experiment [8], the system named is Staphylococcus epidermidis. The experiment in a line: Antibacterial activity against methicillin-sensitive Staphylococcus epidermidis ATCC 12228 after 18 hrs by broth microdilution method. Type of experiment: functional, organism-based. The note with it: ATCC 12228, 18 h, read-out: IC50.
In experiment [9] the test system is Staphylococcus epidermidis. Briefly: Antibacterial activity against methicillin-sensitive Staphylococcus epidermidis 12-6 after 18 hrs by broth microdilution method. Type of experiment: functional, organism-based. The note with it: 12-6, 18 h.
In experiment [10] the test system is Staphylococcus epidermidis. Briefly: Antibacterial activity against methicillin-resistant Staphylococcus epidermidis 12-8 after 18 hrs by broth microdilution method. Format: functional, organism-based. Particulars: 12-8, 18 h, read-out: IC50.
Experiment [11] concerns Enterococcus faecalis. Briefly: Antibacterial activity against vancomycin-sensitive Enterococcus faecalis ATCC 29212 after 18 hrs by broth microdilution method. Type of experiment: functional, organism-based. The note with it: ATCC 29212, 18 h, read-out: IC50.
Experiment [12] deals with Enterococcus faecalis. Briefly: Antibacterial activity against vancomycin-resistant Enterococcus faecalis ATCC 51299 after 18 hrs by broth microdilution method. Type of experiment: functional, organism-based. The note with it: ATCC 51299, 18 h, read-out: IC50.
Experiment [13] concerns Enterococcus faecalis. The experiment in a line: Antibacterial activity against vancomycin-sensitive Enterococcus faecalis 12-5 after 18 hrs by broth microdilution method. Type of experiment: functional, organism-based. Particulars: 12-5, 18 h, read-out: IC50.
Experiment [14] deals with Enterococcus faecalis. Briefly: Antibacterial activity against vancomycin-resistant Enterococcus faecalis 09-9 after 18 hrs by broth microdilution method. Format: functional, organism-based. Particulars: 09-9, 18 h, read-out: IC50.
Experiment [15] concerns Enterococcus faecium. Briefly: Antibacterial activity against vancomycin-resistant Enterococcus faecium ATCC 700221 after 18 hrs by broth microdilution method. Type of experiment: functional, organism-based. Particulars: ATCC 700221, 18 h, read-out: IC50.
Experiment [16] deals with Enterococcus faecium. Briefly: Antibacterial activity against vancomycin-resistant Enterococcus faecium 12-1 after 18 hrs by broth microdilution method. Type of experiment: functional, organism-based. Particulars: 12-1, 18 h, read-out: IC50.
The test system of experiment [17] is Enterococcus faecium. The experiment in a line: Antibacterial activity against vancomycin-sensitive Enterococcus faecium 12-3 after 18 hrs by broth microdilution method. Format: functional, organism-based. The note with it: 12-3, 18 h, read-out: IC50.
Experiment [18] deals with Escherichia coli. Briefly: Antibacterial activity against extended spectrum beta-lactamase-deficient Escherichia coli ATCC 25922 after 18 hrs by broth microdilution method. Format: functional, organism-based. The note with it: ATCC 25922, 18 h, read-out: IC50.
For experiment [19], the system named is Escherichia coli. Briefly: Antibacterial activity against extended spectrum beta-lactamase-deficient Escherichia coli 1515 after 18 hrs by broth microdilution method. Format: functional, organism-based. Particulars: Escherichia coli, 1515, 18 h.
Experiment [20] deals with Escherichia coli. The experiment in a line: Antibacterial activity against extended spectrum beta-lactamase-deficient Escherichia coli 12-14 after 18 hrs by broth microdilution method. The note with it: 12-14, 18 h, read-out: IC50. Format: functional, organism-based.
Experiment [21] has as its system Escherichia coli. Briefly: Antibacterial activity against extended spectrum beta-lactamase producing Escherichia coli 12-15 after 18 hrs by broth microdilution method. Type of experiment: functional, organism-based. The note with it: 12-15, 18 h, read-out: IC50.
Experiment [22] relates to Klebsiella pneumoniae. The experiment in a line: Antibacterial activity against extended spectrum beta-lactamase producing Klebsiella pneumoniae ATCC 700603 after 18 hrs by broth microdilution method. Format: functional, organism-based. The note with it: ATCC 700603, 18 h.
Experiment [23] deals with Klebsiella pneumoniae. The experiment in a line: Antibacterial activity against extended spectrum beta-lactamase-deficient Klebsiella pneumoniae 7 after 18 hrs by broth microdilution method. Format: functional, organism-based. The note with it: Klebsiella pneumoniae, 7, 18 h; read-out: IC50.
In experiment [24] the test system is Klebsiella pneumoniae. Briefly: Antibacterial activity against NDM-1 producing Klebsiella pneumoniae ATCC BAA-2146 after 18 hrs by broth microdilution method. The note with it: ATCC BAA-2146, 18 h, read-out: IC50. Type of experiment: functional, organism-based.
Experiment [25] relates to Klebsiella pneumoniae. The experiment in a line: Antibacterial activity against extended spectrum beta-lactamase-deficient Klebsiella pneumoniae 12-4 after 18 hrs by broth microdilution method. Type of experiment: functional, organism-based. The note with it: 12-4, 18 h.
The test system of experiment [26] is Klebsiella pneumoniae. Briefly: Antibacterial activity against extended spectrum beta-lactamase producing Klebsiella pneumoniae 12-8 after 18 hrs by broth microdilution method. Type of experiment: functional, organism-based. Particulars: 12-8, 18 h, read-out: IC50.

What is called IC50 is the concentration that inhibits the measured activity by half. A lower IC50 goes with inhibition by little substance.

Converted amounts (≈) assume the structure as drawn. A value given as a limit tells only on which side of the number the result lay.

With `CCCc1cc(O)cc2c1Oc1cc(O)cc(CCC)c1C(=O)O2`, the MIC against Staphylococcus aureus [1] was 4 µg/mL (≈ 12.2 µM); in the experiment on Bacillus thuringiensis, 4 µg/mL (≈ 12.2 µM); with Bacillus subtilis, 8 µg/mL (≈ 24.4 µM); in the experiment on Escherichia coli [2] it was above 128 µg/mL.
With `CCCc1cc(O)cc2c1Oc1c(Cl)c(O)cc(CCC)c1C(=O)O2`, the MIC against Staphylococcus aureus [1] is 8 µg/mL (≈ 22.1 µM); against Bacillus thuringiensis, 8 µg/mL (≈ 22.1 µM); with Bacillus subtilis it was 16 µg/mL (≈ 44.1 µM); against Escherichia coli [2], above 128 µg/mL; with Staphylococcus aureus [3], 32 µM (≈ 11.6 µg/mL); with Staphylococcus aureus [4], 64 µM (≈ 23.2 µg/mL). The MIC was 64 µM (≈ 23.2 µg/mL) in the experiment with Staphylococcus aureus [5]; 64 µM (≈ 23.2 µg/mL) in the experiment with Staphylococcus aureus [7]; 64 µM (≈ 23.2 µg/mL) in experiment [8]; 32 µM (≈ 11.6 µg/mL) in [10]; 256 µM (≈ 92.9 µg/mL) with Enterococcus faecalis [11]; above 256 µM in the experiment with Enterococcus faecalis [12]. Moreover, the MIC is above 256 µM with Enterococcus faecalis [13]; 256 µM (≈ 92.9 µg/mL) with Enterococcus faecalis [14]; above 256 µM in the experiment on Enterococcus faecium [15]; 256 µM (≈ 92.9 µg/mL) in the experiment on Enterococcus faecium [16]; above 256 µM with Enterococcus faecium [17]; above 256 µM in the experiment on Escherichia coli [18]. The MIC in the experiment on Escherichia coli [20], in the experiment on Escherichia coli [21], in the experiment with Klebsiella pneumoniae [23], in the experiment with Klebsiella pneumoniae [24] and in the experiment on Klebsiella pneumoniae [26] was above 256 µM each time. Moreover, the half-inhibitory concentration (IC50) was 64 µM in the experiment on Staphylococcus aureus [6]; 64 µM in experiment [9]; above 256 µM with Escherichia coli [19]; above 256 µM in the experiment with Klebsiella pneumoniae [22]; above 256 µM with Klebsiella pneumoniae [25].
Take `CCCc1c(Cl)c(OC)c(Cl)c2c1OC(=O)c1c(CCC)c(Cl)c(O)c(Cl)c1O2`: the MIC in the experiment with Staphylococcus aureus [1] is 0.25 µg/mL (≈ 0.521 µM); with Bacillus thuringiensis, 0.5 µg/mL (≈ 1.04 µM); against Bacillus subtilis it was 0.25 µg/mL (≈ 0.521 µM); in the experiment with Escherichia coli [2], above 128 µg/mL.
For `CC1(C)S[C@@H]2[C@H](NC(=O)Cc3ccccc3)C(=O)N2[C@H]1C(=O)O` [PENICILLIN G], the MIC with Staphylococcus aureus [1] is 0.125 µg/mL (≈ 0.374 µM); against Bacillus thuringiensis it was 128 µg/mL (≈ 383 µM); in the experiment on Bacillus subtilis, 0.125 µg/mL (≈ 0.374 µM); in the experiment on Escherichia coli [2] it was above 128 µg/mL.
On to `CCCc1c(Cl)c(O)c(Cl)c2c1OC(=O)c1c(CCC)c(Cl)c(O)c(Cl)c1O2`, for which the MIC in the experiment with Staphylococcus aureus [1] is 4 µg/mL (≈ 8.58 µM); against Bacillus thuringiensis it was 2 µg/mL (≈ 4.29 µM); in the experiment with Bacillus subtilis, 2 µg/mL (≈ 4.29 µM); against Escherichia coli [2], above 128 µg/mL.
Take `CCCc1c(Cl)c(OC)cc2c1OC(=O)c1c(CCC)c(Cl)c(O)c(Cl)c1O2`: the MIC in the experiment with Staphylococcus aureus [1] is 0.5 µg/mL (≈ 1.12 µM); with Bacillus thuringiensis it was 0.5 µg/mL (≈ 1.12 µM); in the experiment on Bacillus subtilis it was 0.5 µg/mL (≈ 1.12 µM); in the experiment on Escherichia coli [2], above 128 µg/mL.
Regarding `CCCc1cc(O)cc2c1OC(=O)c1c(CCC)c(Cl)c(O)c(Cl)c1O2`, the MIC against Staphylococcus aureus [1] was 4 µg/mL (≈ 10.1 µM); in the experiment on Bacillus thuringiensis it was 2 µg/mL (≈ 5.03 µM); with Bacillus subtilis, 2 µg/mL (≈ 5.03 µM); in the experiment with Escherichia coli [2], above 128 µg/mL.
